Source: patent US11903944B1, “Experimental model using pazopanib-induced cardiotoxicity” (KING FAISAL UNIVERSITY, priority 2023, dated 2024)

Tests used:
Format in all cases: in vivo, Male Sprague Dawley rats
[1] = Blood pressure recording, noninvasive tail-cuff system, experimental animal model for hypertension; settings: 30 mg/kg twice daily orally for 14 days; compared to normal animals
Procedure: (§1) This experimental protocol was permitted by the Institutional Animal Care and Use Committee of King Faisal University. All the experiments were executed in harmony with the relevant procedures and regulations of the Ethical Conduct for the Use of Animals in Research at King Faisal University. Male Sprague Dawley rats weighing 150-200 g were purchased and accommodated in polypropylene cages and upheld at 27±2° C. under a 12 h light/dark sequence. Rats were kept and observed for 1 week in the animal house. The animals were fed with standard rat feed and allowed water ad libitum.
(§2) Animals were distributed into 5 groups, each group containing 6 rats (n=6). Group 1 is the control group in which animals were injected with normal saline intraperitoneally (IP). Group 2: The animals were treated with Pazopanib 30 mg/kg twice daily orally for 14 days to induce hypertension. This group represents the “Experimental animal model for hypertension.” Group 3: The animals were treated with Pazopanib 100 mg/kg orally as a single dose. This group represents the “Experimental animal model for arrhythmia.” Group 4: The animals were treated with Pazopanib 300 mg/kg/day orally for 21 days. This group represents the “Experimental animal model for Cardiac toxicity (oral)” Group 5: The animals were treated with Pazopanib 21 mg/kg/day intraperitoneally (IP) for 30 days. This group represents the “Experimental animal model for Cardiac toxicity (IP)”
Blood pressure measurements were performed using a noninvasive computerized tail-cuff system from Emka Technologies' Systems (Paris, France), which involved placing a cuff on the animal's tail to occlude the blood flow. The pressure was raised and then slowly released. The cuff pressure when the pulse signal reappears is intended as the systolic pressure. […]
(§3) Data were expressed as mean±standard error of the mean (SEM) for six animals (n=6) in each group. Statistically significant differences between the groups were determined using one-way ANOVA followed by Tukey's test as a post-hoc analysis. […]

[2] = test system: Toll-Like Receptors 4 (TLR4) gene expressions; test: TLR4 gene expression in cardiac tissue by real-time quantitative PCR
Procedure: as §1
Animals were distributed into 5 groups, each group containing 6 rats (n=6). Group 1 is the control group in which animals were injected with normal saline intraperitoneally (IP). Group 2: The animals were treated with Pazopanib 30 mg/kg twice daily orally for 14 days to induce hypertension. This group represents the “Experimental animal model for hypertension.” Group 3: The animals were treated with Pazopanib 100 mg/kg orally as a single dose. […] This group represents the “Experimental animal model for Cardiac toxicity (IP)”
Blood samples were collected, and centrifuged (10 min/4000 rpm) to separate serum which was then stored in a −80° C. for biochemical analysis. […]
Total RNA was extracted from the cardiac tissue samples according to the Trizol kit instructions. […] The TLR4 primer (5′-[…]-3′ (SEQ ID NO: 1), 3′-[…]-5′ (SEQ ID NO: 2)), TLR2 (5′-[…]-3′ (SEQ ID NO: 3), 3′-[…]-5′ (SEQ ID NO: 4)), MYD88 (5′-[…]-3′ (SEQ ID NO: 5), 3′-[…]-5′ (SEQ ID NO: 6)) were used to detect and quantify related genes in the cDNA using Real-time quantitative PCR. In a 25 μL reaction volume, PCR was performed as follows: initial denaturation for 4 min at 94° C., followed by denaturation for 30 s at 94° C., annealing for 30 s at 62° C., and extension for 2 min at 72° C. for 35 cycles, and final extension for 10 min at 72° C. qPCR was applied using SYBR ExScript RT-PCR kit, and quantification examinations were accomplished via an Opticon-2 Real-time PCR reactor (MJ Research, Capital Court, Reno, NV, USA). qPCR results were obtained using Step PE Applied Biosystems (Waltham, MA, USA) software. Relative gene expression data were calculated using the (2-ΔΔCq2) method and presented as a fold change. Target gene expressions were assessed and related to the internal reference β-actin gene using the primer (5′-ATCCTGCGTCTGGACCTGG-3′ (SEQ ID NO: 7), 5′-[…]-3′ (SEQ ID NO: 8)), and the results were presented in the figures as relative expressions.
as §3

[3] = Cardiac toxicity identification: serum cardiac marker levels by ELISA; settings: compared with normal rats, p<0.05
Procedure: as §1
Animals were distributed into 5 groups, each group containing 6 rats (n=6). Group 1 is the control group in which animals were injected with normal saline intraperitoneally (IP). Group 2: The animals were treated with Pazopanib 30 mg/kg twice daily orally for 14 days to induce hypertension. This group represents the “Experimental animal model for hypertension.” Group 3: The animals were treated with Pazopanib 100 mg/kg orally as a single dose. This group represents the “Experimental animal model for arrhythmia.” Group 4: The animals were treated with Pazopanib 300 mg/kg/day orally for 21 days. […] This group represents the “Experimental animal model for Cardiac toxicity (IP)”
Blood samples were collected, and centrifuged (10 min/4000 rpm) to separate serum which was then stored in a −80° C. for biochemical analysis. Thereafter, the anaesthetized animals were sacrificed, and the hearts of different investigational groups were separated, and stored in a −80° C. for subsequent biochemical parameters determination.
ELISA kits, following the manufacturer's instructions, were used to measure serum cardiac marker levels of CPK, CK-MB, cTnT, cTnI and LDH.
(§4) Data were expressed as mean±standard error of the mean (SEM) for six animals (n=6) in each group. Statistically significant differences between the groups were determined using one-way ANOVA followed by Tukey's test as a post-hoc analysis. In all cases, probability values of p<0.05 were taken as statistically significant.

[4] = Electrocardiogram (ECG) recording for arrhythmia identification, experimental animal model for arrhythmia; settings: 100 mg/kg orally single dose, after 3 hours
Procedure: as §1, §2
At the end of the experiments, urethane-anaesthetized rats (1.5 g/kg) were placed in a prone position on a board, and an ECG was continuously recorded using noninvasive computerized ECG apparatus from Kent Scientific (Torrington, CT, USA). Heart rate, ST segment, P wave, QT, P-R and R-R intervals, and QRS complex were calculated from ECG recordings electronically.
as §4

[5] = 30 mg/kg/day intraperitoneally (IP) for 21 days
[6] = 300 mg/kg/day orally for 21 days

For Cc1ccc(Nc2nccc(N(C)c3ccc4c(C)n(C)nc4c3)n2)cc1S(N)(=O)=O [Pazopanib], the diastolic blood pressure [1] was “elevated”, the mean blood pressure [1] was “elevated” and the systolic blood pressure [1] was “elevated”. The TLR4 gene expression ([2]; arrhythmia model: 100 mg/kg orally as a single dose) was “significantly increased”, the TLR4 gene expression ([2]; cardiotoxicity model: 30 mg/kg/day intraperitoneally (IP) for 30 days) was “significantly increased” and the TLR4 gene expression ([2]; cardiotoxicity model: 300 mg/kg/day orally for 30 days) was “significantly increased”. The TLR4 gene expression ([2]; hypertension model: 30 mg/kg twice daily orally for 14 days) was “significantly increased”, the “serum cardiac troponin I (cTnI)” value [3, 5] was “augmented” and the “serum cardiac troponin T (cTnT)” value [3, 5] was “augmented”. For the same compound, the “serum creatine kinase-myocardial bound (CK-MB)” value [3, 5] was “augmented”, the “serum creatine phosphokinase (CPK)” value [3, 5] was “augmented” and the “serum lactate dehydrogenase (LDH)” value [3, 5] was “augmented”. For the same compound, the “serum cardiac troponin I (cTnI)” value [3, 6] was “augmented”, the “serum cardiac troponin T (cTnT)” value [3, 6] was “augmented” and the “serum creatine kinase-myocardial bound (CK-MB)” value [3, 6] was “augmented”. The “serum creatine phosphokinase (CPK)” value [3, 6] was “augmented”, the “serum lactate dehydrogenase (LDH)” value [3, 6] was “augmented” and the P-R interval [4] was “shortening”. For the same compound, the R-R interval [4] was “shortening”, the p wave duration [4] was “shortening” and the “QRS interval (QRS complex duration)” value ([4]; compared to control, p<0.05) was “prolongation”. The QT interval ([4]; compared to control, p<0.05) was “prolongation” and the ST segment amplitude ([4]; compared to control, p<0.05) was “elevation”.
